How the values were obtained:
[1] = Acetaldehyde-binding: acetaldehyde and ethanol levels in gastric juice after oral L-cysteine tablets and ethanol; assay type: in vivo, human; conditions: L-cysteine total 200 mg oral, film-coated tablets; ethanol 0.3 g/kg, 15 vol %; all measurements
Procedure: An analysis was carried out after administering L-cysteine (in a total of 200 mg) or placebo, orally to subjects. This cysteine or placebo was formulated into film-coated tablets as described above, with the cysteine or the placebo in granules together with a polymer not dissolving in the stomach and an inert bulking agent. The subjects swallowed said tablets with 200 ml of water. Immediately thereafter they were given ethanol (0.3 g/kg body weight) diluted in water to 15 vol %. Gastric juice samples were collected, and their L-cysteine concentrations were determined using HPLC, and two parallel samples. […] In all measurements, the average acetaldehyde concentration of the gastric juice was 2.6 times higher with placebo than with cysteine. […] The average ethanol concentration in the gastric juice was 5.0 vol-% in the first sample, declining to 0.9 vol-% in the 40-minute sample. A positive correlation emerged between the acetaldehyde concentration and the ethanol concentration.

[2] = L-cysteine concentration in gastric juice (HPLC) after oral tablets; assay type: in vivo, human; conditions: after oral administration of study formulations containing L-cysteine (total 200 mg)
Procedure: An analysis was carried out after administering L-cysteine (in a total of 200 mg) or placebo, orally to subjects. This cysteine or placebo was formulated into film-coated tablets as described above, with the cysteine or the placebo in granules together with a polymer not dissolving in the stomach and an inert bulking agent. The subjects swallowed said tablets with 200 ml of water. Immediately thereafter they were given ethanol (0.3 g/kg body weight) diluted in water to 15 vol %.
Gastric juice samples were collected, and their L-cysteine concentrations were determined using HPLC, and two parallel samples.
The mean cysteine concentrations are represented in FIG. 2. After administration of placebo formulations, no L-cysteine was detected. No significant correlation was found between the cysteine concentration and the acetaldehyde concentration.

N[C@@H](CS)C(=O)O [L-cysteine]
average acetaldehyde concentration of the gastric juice, times higher with placebo than with cysteine [1]: 2.6 times | L-cysteine detected in gastric juice [2]: detected in the gastric juice of all subjects

— patent US20160022621A1, “COMPOSITION FOR ORAL ADMINISTRATION FOR BINDING ALDEHYDES IN THE GASTROINTESTINAL TRACT” (BIOHIT OYJ, priority 2013, published 2016)
